Measured values from patent publication EP2949324A1, “Prevention and/or treatment of ischemia/reperfusion injury” (Consorci Institut Catala de Ciencies Cardiovasculars, priority 2014, dated 2015).

Experiments:
[1] = tested on: canine cardiac ischemia model; conditions: infused during reperfusion; cited from earlier work
LDL = assay: Resistance of LDL against copper induced in vitro oxidation and TBARS; assay type: in vivo, swine; conditions: 3 week oral treatment; p<0.05
Protocol: (§1) Blood samples were collected at 2.5 h post-reperfusion and 3 weeks post-MI to evaluate lipoprotein resistance to oxidation. The inventors firstly assessed HDL-antioxidant activity by a method based on the ability of HDL to reverse oxidation of LDL. Results were expressed as the percentage of total oxidized LDL considering that control oxLDL is 100%. In addition, resistance of LDL against copper induced in vitro oxidation was also determined in EDTA-blood samples as previously described. The inventors also determined the lipid peroxide content of oxidized-LDL by assessing thiobarbituric-acid-reactive substances (TBARS).

RhoA = RhoA in total and cytosolic-membrane fractions of cardiac tissue (immunoblotting); assay type: in vivo, swine; conditions: for total amount of RhoA: myocardium, […] post-reperfusion and 3 weeks post-MI
Protocol: RhoA (Santa Cruz) was determined in total and cytosolic-membrane fractions of jeopardized cardiac tissue of all animals as previously described by Vilahur G 2009 (ad supra).

[2] = tested on: pig model of closed-chest coronary balloon occlusion/reperfusion; assay: Transthoracic echocardiography (LVEF, SF); assay type: in vivo, swine
Protocol: Transthoracic echocardiography assessment was performed in all animals before inducing ischemia (baseline), after 75 min of ischemia (prior β-OH-S infusion), 2.5 h post-reperfusion and 3 weeks post-MI using an echocardiographyc system Phillips iE33 equipped with a S5-1 Sector Array transducer. Left ventricle ejection fraction (LVEF) and shortening fraction (SF) were measured in the short-axis M-mode right parasternal projection in a plane below the mitral valves and perpendicular to the LV (left ventricle).

[3] = tested on: TβRII/Smad2/3 signaling pathway; assay: Reparative fibrosis of the forming scar (TβRII/Smad2/3, myofibroblasts, collagen); assay type: in vivo, swine
Protocol: (§2) Transcriptomic analysis: It was analyzed by real-time PCR (Applied Biosystems) mRNA levels for: 1) apoptosis-related markers [extrinsic-(Fas Receptor/CD95 and caspase-8), intrinsic-(Bax, Bcl2, and P53) pathways and caspase-3]; 2) intracellular calcium handling receptors [sarcoendoplasmic reticulum Ca^2+ATPase 2 (SERCA2) and the ryanodine receptor (RyR2)]; and 3) fibrous tissue formation (collagen, Smad2 and Smad3). The threshold cycle values were determined and normalized to the housekeeping gene 18S rRNA.
(§3) Western Blot analysis: Protein levels of: 1) apoptosis markers (truncated-caspase-3); 2) cardioprotective kinases [PKC-ε and PKC-ε phosphorylated at Ser^729 (Santa Cruz) and Akt/PKB (Santa Cruz) and Akt phosphorylated at Ser^473 (Cell signaling)]; 3) total eNOS and eNOS phosphorilated at Ser^1177 (Cell Signaling); and 4) fibrosis [TGFP type II receptor (TPRII; Abcam) and phosphorylated-Smad2/3 (Ser^423/425; Santa Cruz)] were assessed.
(§4) To that end, serially cut 5 µm sections from OCT-embedded samples were stained for lipids (oil red-O, ORO) and interstitial collagen (Sirius Red). Images were captured with a Nikon eclipse 80i microscope and digitalized by a Retiga-1300i. Staining was calculated by a single blinded observer from an average of 5-fields/sample as content (%)=[positive stained area/(total tissue area- vascular luminal areas)]x100 using ImageJ®.
In addition, myofibroblasts detection in the scar tissue was performed by double staining with mouse monoclonal vimentin (Dako) and rabbit polyclonal alpha-SMA 1:50 (Abeam). Alexa fluor 488 donkey anti-mouse and alexa fluor 546 goat anti-rabbit were used as secondary antibodies, respectively and Hoechst for nuclear staining. Images were captured by confocal microscopy (20x).

[4] = tested on: Akt/eNOS signaling pathway; assay: Akt/eNOS signaling (Western blot) in myocardium and coronary arteries; assay type: in vivo, swine
Protocol: as §3
In addition, 3 weeks post-MI, the coronary arteries of all animals were isolated, cleaned of surrounding tissue and snap frozen for further analysis of coronary phosphorylated-eNOS protein expression.

PKCε = PKCε expression/activation in the forming scar (Western blot); assay type: in vivo, swine; conditions: scar tissue, compared to placebo-control animals
Protocol: as §3

[5] = tested on: pig model of closed-chest coronary balloon occlusion/reperfusion; assay: Myocardial lipotoxicity: oil red-O staining and lipid characterization (TLC) of scar and NIM; assay type: in vivo, swine; conditions: 3 weeks post-MI
Protocol: as §4

[6] = cited from earlier work; for infarct size: given pre-ischemia
endothelin receptors = conditions: cited from earlier work; for cardiac function and myocardial relaxation: at 1 h; for difference compared to placebo-treated animals: at 24 h
[7] = tested on: canine hepatic ischemia/reperfusion model; conditions: given prior to reperfusion; cited from earlier work
[8] = tested on: apoptosis-related markers; assay: Apoptosis-related markers in ischemic myocardium (real-time PCR, Western blot, TUNEL); assay type: in vivo, swine
Protocol: (§5) Tissue samples obtained from the IM (2.5 h post-reperfusion)/scar (3 weeks post-MI) and NIM of all animals were pulverized and homogenized in Tripure® or lysis buffer for RNA and protein isolation, respectively.
as §2, §3
Isolated mitochondrial extracts were incubated against Bcl-2 phosphorylated at Ser^87.

[9] = tested on: pig model of closed-chest coronary balloon occlusion/reperfusion; assay: Vascular/cardiac DNA-oxidative damage (8-hydroxyguanosine staining); assay type: in vivo, swine; conditions: […] post-reperfusion
Protocol: (§6) Paraffin-embedded LAD and ischemic myocardial tissue of animals sacrificed 2.5 h post-reperfusion were cut into 5-µm-thick for 8-hydroxyguanosine staining (Abcam ab48508), a measurement indicative of oxidative stress-induced DNA-damage. In addition, optimal cutting temperature (OCT)-embedded ischemic myocardial tissue of animals sacrificed 2.5 h post-reperfusion was stained for neutrophils detection (anti-neutrophil elastase; Abcam). Staining was calculated by a single blinded observer from an average of 5-fields/animal as % of stained area. Images were captured by Nikon Eclipse 80i microscope and digitized by Retiga 1300i Fast camera.

[10] = tested on: mitochondria isolated from the ischemic myocardium; assay: Mitochondrial membrane potential by flow cytometry (JC-1); assay type: in vivo, swine; conditions: […] of reperfusion, p<0.05
Protocol: Mitochondria were isolated from the ischemic myocardium of pigs subjected to 2.5 h of reperfusion as previously reported (Boehm et al. 2001 Am J Physiol Heart Circ Physiol 280: H977-983). Mitochondrial membrane potential (Δψm) was measured by flow cytometry using the ratiometric dye 5,5',6,6'-tetrachloro-1,1',3,3'-tetraethylbenzimidazol carbocyanine iodide (JC-1; Molecular Probes). Values were expressed as red fluorescence activity. Isolated mitochondria treated with valinomycin (Sigma), which decreases Δψm, were used as control.

SERCA2 = assay: Real-time PCR of calcium handling receptor mRNA; assay type: in vivo, swine
Protocol: as §5, §2

RyR2 = assay: Real-time PCR of calcium handling receptor mRNA; assay type: in vivo, swine
Protocol: as §5, §2

[11] = tested on: pig model of closed-chest coronary balloon occlusion/reperfusion; assay: Neutrophil detection in ischemic myocardium (anti-neutrophil elastase staining); assay type: in vivo, swine; conditions: […] post-reperfusion, p<0.05
Protocol: as §6

[12] = tested on: pig model of closed-chest coronary balloon occlusion/reperfusion; assay: Reperfusion-related arrhythmias and hemodynamic monitoring; assay type: in vivo, swine
Protocol: This hyperlipidemic diet contains 24.82% proteins, 64.20% carbohydrates, 10.98% fats and 16,834.7 kJ. […] After this 10 day diet period animals underwent a closed-chest 90 min mid-left anterior descending (LAD) coronary balloon occlusion. […] At minute 90, the balloon was deflated to achieve coronary artery reperfusion. […] The incidence of reperfusion-related arrhythmias during the first 2.5 h upon balloon deflation was documented in all animals. Animals had continuous ECG and hemodynamic monitoring throughout all procedures.

[13] = tested on: pig model of closed-chest coronary balloon occlusion/reperfusion; assay: Morphometric determination of infarct size (Evan's Blue / TTC); assay type: in vivo, swine; conditions: single loading dose 0.3 mg/kg i.v. prior reperfusion; p<0.05
Protocol: This hyperlipidemic diet contains 24.82% proteins, 64.20% carbohydrates, 10.98% fats and 16,834.7 kJ. […] After this 10 day diet period animals underwent a closed-chest 90 min mid-left anterior descending (LAD) coronary balloon occlusion. […] At minute 90, the balloon was deflated to achieve coronary artery reperfusion. […] The incidence of reperfusion-related arrhythmias during the first 2.5 h upon balloon deflation was documented in all animals. Animals had continuous ECG and hemodynamic monitoring throughout all procedures. 2.5 h post-reperfusion Evan's Blue dye was injected in anesthetized animals through the left atrium to outline the area at risk (AAR) after which the hearts of the animals were arrested with potassium chloride and rapidly excised. Hearts were sectioned into 6 transverse slices parallel to the atrioventricular ring. Consecutive slices were alternatively collected for infarct size analysis (TTC; triphenyltetrazolium chloride staining) and molecular studies of the ischemic myocardium (IM) and non-ischemic myocardium (NIM).

oxLDL = assay: HDL-antioxidant activity (ability of HDL to reverse oxidation of LDL); assay type: in vivo, swine; conditions: HDL isolated […] post-reperfusion; p<0.05
Protocol: as §1

[14] = ischemic myocardium, […] post-reperfusion

CCNC(=O)[C@H]1O[C@@H](n2cnc3c(N)nc(NCCc4ccc(CCC(=O)O)cc4)nc32)[C@H](O)[C@@H]1O [CGS-21680]
Bax [1]: downregulated | Bcl-2 levels [1]: upregulated | neutrophil accumulation in the perinecrotic myocardium [1]: reduced

CCC(C)(C)C(=O)O[C@H]1C[C@@H](C)C=C2C=C[C@H](C)[C@H](CC[C@@H]3C[C@@H](O)CC(=O)O3)[C@H]21 [Simvastatin, (1S,3R,7S,8S,8aR)-8-{2-[(2R,4R)-4-hydroxy-6-oxotetrahydro-2H-pyran-2-yl]ethyl}-3,7-dimethyl-1,2,3,7,8,8a hexahydronaphthalen-1-yl 2,2-dimethylbutanoate]
decrease in TBARS levels as compared to the experimental day (LDL): 32% | prolongation of the lag time as compared to control/placebo animals (LDL): 4 times | total amount of RhoA (RhoA): unchanged | decrease of RhoA membrane translocation (RhoA; scar, after the 3-week oral treatment, p<0.001 vs control): persisted | LVEF and SF improvement ([2]; up to 3 weeks post-MI, oral simvastatin): persisted | Smad3 mRNA levels ([3]; different cardiac regions, 3 weeks post-MI): no changes | collagen fibrils deposition ([3]; healing scar, compared to control animals and NIM): higher | α-SMA/vimentin positive myofibroblasts ([3]; healing scar, data not shown): higher detection | Smad2/3 (downstream effector of TβRII) ([3]; scar area, 3 weeks post-MI): activation | TβRII protein expression ([3]; scar area, 3 weeks post-MI): marked and significant increase | Smad2 gene expression ([3]; scar tissue, 3 weeks post-MI): significantly upregulated | P-eNOS ([4]; coronary arteries at 3-weeks post-MI): enhanced | P-Akt/P-eNOS pathway activation ([4]; evolving scar up to 3 weeks post-AMI): persisted | PKCε expression and activation (PKCε): enhanced both the expression and activation | free-cholesterol content ([5]; different cardiac zones): No differences | less cholesteryl-ester accumulation as compared to placebo-controls ([5]; forming scar): 50%

O=C(NCCO[N+](=O)[O-])c1cccnc1 [nicorandil]
infarct size [6]: reduced infarct size in a dose-dependent manner

CS(=O)(=O)O.Cc1cccc2c1cc(C(=O)N=C(N)N)n2C [SM-20550]
effect on infarct size ([6]; given post-ischemia): beneficial | infarct size [6]: reduced infarct size in a dose-dependent manner

BQ-123
cardiac function and myocardial relaxation (endothelin receptors): significantly better | difference compared to placebo-treated animals (endothelin receptors): no longer evident

Nc1ncnc2c1ncn2[C@@H]1O[C@H](CO)[C@@H](O)[C@H]1O [adenosine, Adenosine]
aspartate aminotransferase (AST) and alanine transaminase (ALT) [7]: attenuated the rise | hepatic glutathione stores [7]: restored | neutrophil accumulation and superoxide radical production [7]: inhibition

CCC(C)(C)C(=O)OC1CC(C)C=C2C=CC(C)C(CCC(O)CC(O)CC(=O)O)C21 (stereo not drawn) [β-OH-S, β-hydroxy acid derivative of simvastatin]
mitochondrial Bcl-2 activation [8, 14]: diminished | truncated caspase-3 expression [8, 14]: reduced | apoptotic cell counts (TUNEL staining) ([8]; ischemic myocardium, compared to vehicle/control, data not shown): low apoptotic cell counts | upregulation of genes of death receptor- and mitochondrial-related apoptotic pathways ([8]; jeopardized myocardium, […] post-reperfusion): prevented the upregulation | reperfusion-related oxidative DNA damage ([9]; coronary artery): absence of DNA oxidative damage | reperfusion-related oxidative DNA damage ([9]; ischemic myocardial tissue): absence of DNA oxidative damage | RhoA membrane translocation (activation), membrane-to-cytosol ratio (RhoA; intravenous infusion, ischemic myocardium, […] post-reperfusion, p<0.001 vs control): markedly decreased | total amount of RhoA (RhoA): unchanged | LVEF improvement ([2]; […] after reperfusion): 9.4% | SF improvement ([2]; […] after reperfusion): 6.0% | Δψm relative to vehicle/control [10]: 2 times | SERCA2 mRNA (SERCA2; NIM): 1.5±0.3 SERCA/18S rRNA | SERCA2 mRNA (SERCA2; ischemic myocardium): 1.9±0.5 SERCA/18S rRNA | RyR2 mRNA (RyR2; NIM): 0.2±0.07 RyR2/18S rRNA | RyR2 mRNA (RyR2; ischemic myocardium): 0.14±0.03 RyR2/18S rRNA | P-Akt/P-eNOS pathway ([4]; ischemic myocardium, acute administration): activating | attenuation of neutrophils infiltration as compared to vehicle/control [11]: ~70% | incidence of reperfusion-related ventricular arrhythmias ([12]; first […] upon balloon deflation, 3 out of 12): 25 % animals | hemodynamic parameters (heart rate and mean blood pressure) ([12]; throughout the study): not affected | salvage of the LV-at-risk as compared to reperfusion alone [13]: 40% | higher HDL antioxidant activity against LDL oxidation relative to controls (oxLDL): 25%

BQ-788
cardiac function and myocardial relaxation (endothelin receptors): significantly better | difference compared to placebo-treated animals (endothelin receptors): no longer evident
